Ends that are not written are not given here. * marks the point of attachment. Acm = CC(=O)NC*
Experiments:
[1] = tested on: EA.hy.926 cells; assay: DNA synthesis (tritiated thymidine incorporation) in EA.hy.926 cells stimulated with 10% FBS; format: cell-based, human; conditions: 24 hours, starting from the concentration of 10^−12 M
Protocol: Endothelial human cells EA.hy.926 were grown in DMEM supplemented with 10% fetal bovine serum (FBS) and with the appropriate concentrations of glutamine and antibiotics. Before the experiments, the cells had been deprived of serum for 24 hours in 0.1% FBS. EA.hy.926 cells were inoculated in 96 well-plates and, after being deprived of serum for 24 hours, were 'stimulated with 10% FBS in the presence or in the absence of different concentrations of the peptide 6-49 or of endostatin for further 24 hours. Tritiated tymidine (1 μCi/well) was added during the last 6 hours of incubation. The cells were then extracted in 10% TCA and the radioactivity incorporated in the TCA-insoluble fraction was determined after solubilization in 0.5 M NaOH. The results, reported in FIGS. 3a and 3b, are expressed as the percentage of the maximal stimulation induced by 10% serum in the absence of the drug.

[2] = tested on: endothelial cells; assay: Tubules formation by endothelial cells on Matrigel; format: cell-based; conditions: endothelial cells on Matrigel with FGF or VEGF; area quantified by NIH Image
Protocol: The formation of tubular structures, similar to capillaries, was evaluated by seeding the endothelial cells on a Matrigel carrier, a re-constructed basal membrane, with the characteristic of being liquid at 4° C. and of undergoing polymerization at 37° C. forming a tri-dimensional gel. Proangiogenic factors, such as Fibroblast Growth Factor (FGF) or Vascular Endothelial Growth Factor (VEGF), were added to the medium in the presence of the peptide 9-49 and the plate's were incubated at 37° C. under 5% CO2 atmosphere. Tubules formation was monitored observing the cells with an inverted microscope and, after recording the image by means of photography, a quantification was performed by evaluating the area occupied by the cells and by the capillaries network. Upon observation under the microscope, it is evident that the peptide of invention is able to inhibit the capacity of endothelial cells to form tubular structures similar to capillaries, which on the contrary are clearly evident in the untreated control cells (FIG. 4A). In FIG. 4B, a quantitative analysis of the effect, carried out by a proper software (NIH Image), is reported.

[3] = tested on: EA.hy.926 cells; assay: EA.hy.926 cell migration, chemotaxis test in Boyden chamber; format: cell-based, human; conditions: glioma conditioned medium as chemotactic stimulus, 4 hours, at/starting from 10^−9 M
Protocol: Endothelial human cells EA.hy.926 were grown in DMEM supplemented with 10% fetal bovine serum (FBS) and with the appropriate concentrations of glutamine and antibiotics. Before the experiments, the cells had been deprived of serum for 24 hours in 0.1% FBS. EA.hy.926 cells migration has been evaluated by chemotaxis test in a 48 well Boyden chamber using polycarbonate filters of 12 μm porosity pre-treated with a 10 μg/ml type I collagen solution. […] The chemotactic stimulus, represented by a conditioned medium obtained by a culture of glioma cells, was added to the lower chamber. After 4 hours of incubation at 37° C., non migrated cells were removed by a scraper and the filter was colored with Diff Quick. Migrated cells were then counted at a 400×magnification in 6 different fields. The results, reported in FIG. 2, are expressed as a percentage of the maximal migration induced by the conditioned medium in the presence of the peptide or of endostatin.

[4] = tested on: male mice C57/b16; assay: Matrigel pellet s.c. in mice, hemoglobin amount (Drabkin's method); format: in vivo; conditions: Matrigel with FGF 2 ng/ml and heparin 36 U/ml s.c., 4 days; dose of 1 mg/mouse; compared with controls
Protocol: […] of Matrigel containing FGF 2 ng/ml and heparin 36 U/ml were inoculated s.c. in the abdominal region of male mice C57/b16, of age from 6 to 10 weeks. […] Six animals were used in each experiment. After 4 days, the gelatinized Matrigel pellet was recovered and the amount of hemoglobin therein was measured by means of a commercial kit based on Drabkin's method ([…] Aldrich).

FQPVLHLVALNSPLSGGMRGIRGADFQC(Acm)FQQARAVGLAGTFRAF [Peptide 6-49, tetratetracontapeptide]
maximal inhibition of DNA synthesis [1]: about 80% | tubules formation compared with controls, considered as 100% [2]: 23% | maximal inhibition of cell migration [3]: about 60% | hemoglobin levels in the Matrigel pellets [4]: capable of reducing hemoglobin levels
